Source: article PMC5120204, “Identification of an orally active small-molecule PTHR1 agonist for the treatment of hypoparathyroidism” (Nature Communications, 2016)

Key:
hPTHR1-delNT = target: T1, hPTHR1-delNT (Homo sapiens, UniProt Q03431); assay: cAMP production assay in COS-7 cells expressing hPTHR1-delNT; type: cell-based; settings: COS-7 cells transfected with hPTHR1-delNT
T1 construct: HA + tetraglycine linker (YPYDVPDYA-GGGG); expressed in transfected cells; host or cells: COS-7 (transient)
T1 sequence (Q03431 with tags, fused parts or gaps): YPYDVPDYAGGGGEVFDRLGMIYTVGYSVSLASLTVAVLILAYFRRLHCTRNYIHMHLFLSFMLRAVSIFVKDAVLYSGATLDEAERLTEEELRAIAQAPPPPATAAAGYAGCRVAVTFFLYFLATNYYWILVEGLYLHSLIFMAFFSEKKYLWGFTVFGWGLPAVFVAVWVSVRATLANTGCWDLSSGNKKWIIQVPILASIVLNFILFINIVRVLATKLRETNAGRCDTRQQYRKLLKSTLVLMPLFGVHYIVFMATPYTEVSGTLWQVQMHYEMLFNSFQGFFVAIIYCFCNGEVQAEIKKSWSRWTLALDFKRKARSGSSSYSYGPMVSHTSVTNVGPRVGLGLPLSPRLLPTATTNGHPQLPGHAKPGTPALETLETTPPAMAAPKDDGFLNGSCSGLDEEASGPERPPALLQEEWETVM

OVX rats = assay: Bone histomorphometry of lumbar vertebra in OVX rats; type: in vivo, rat
Method: OVX was carried out in 32-week-old female Crl:CD (SD) rats (Charles River Laboratories). Twelve weeks after surgery, lumbar vertebral BMD (L3–L5) was measured in vivo by dual-energy X-ray absorptiometry (DXA) using a DCS-600EX-IIIR bone densitometer (Hitachi Aloka Medical), and the rats were divided into five groups, each with a similar mean value of BMD and body weight. Sample sizes were determined based on previous experiments with hPTHs and a published study with ibandronate and eldecalcitriol in our laboratories[42] (n=7–10). Then, OVX rats were treated once daily intravenously (vehicle or PCO371 at 3 or 10 mg kg^−1) or orally (vehicle or PCO371 at 30 mg kg^−1) or subcutaneously [vehicle or hPTH(1–34) at 0.9 nmol kg^−1] for 12 weeks. Ten to twelve OVX rats were assigned to each dose group. Nine rats were assigned to the sham-operated control group and were treated with vehicle for PCO371. Ten per cent DMSO (Wako Pure Chemical Industries)/10% Kolliphor EL (Sigma-Aldrich) in 10% hydroxypropyl-β-cyclodextrin (HPCD; Nihon Shokuhin Kako)/0.752% glycine (Wako Pure Chemical Industries) buffer was used as vehicle for PCO371, and phosphate-citrate buffer (pH 6.0) was used as vehicle for hPTH(1–34). To label bone-forming surfaces, tetracycline ([…], Nippon Zenyaku Kogyo) was subcutaneously injected on Day 78 and calcein (8 mg kg^−1, Dōjindo Laboratories) was subcutaneously injected on day 83. Under isoflurane anaesthesia, jugular vein blood was collected immediately before and at 1, 2, 6, 10 and 24 h after administration on day 82 to measure plasma concentration of PCO371 or on day 84 to measure serum Ca levels (o-CPC method, Wako Pure Chemical Industries). Urine was collected for 24 h from metabolic cages on days 84–85 to measure urinary collagen type 1 cross-linked C-telopeptide (CTX) by using the RatLaps ELISA System (Immunodiagnostic Systems). Under isoflurane anaesthesia, blood was collected on day 85 from the abdominal aorta to measure serum osteocalcin level by using the Rat Osteocalcin ELISA System (GE Healthcare). The lumbar spine and bilateral femurs were excised after 12 weeks of treatment. The first lumbar vertebra (L1), 3rd to 5th lumbar vertebrae (L3–L5), the right femur, and the right tibia were preserved in 70% ethanol to measure bone histomorphometry and BMD (DCS-600EX; Hitachi Aloka Medical). Measurement of bone histomorphometry was performed by the Ito Bone Histomorphometry Institute (Niigata, Japan). The second lumbar vertebra (L2) was wrapped in saline-soaked gauze and stored at −80 °C until measurement. Ultimate compressive strength (N) of the L2 vertebra was measured by using a mechanical testing machine (TK-252C; Muromachi Kikai).

fetal rat long bones = assay: Fetal rat long bone cultures, 45Ca release; type: cell-based; settings: organ culture
Method: Bone-resorbing activity was assessed by fetal rat long bone cultures. ^45CaCl2 (1,480 kBq, PerkinElmer) was subcutaneously injected into a pregnant Crl:CD(SD) rat (Charles River Laboratories) on its 18th day of gestation. At 48 h after the injection, the pregnant rat was euthanized, and the ulnae and radial bones were isolated from euthanized fetal rats. The long bones were placed on nylon mesh and covered with paraffin paper, and a floating culture in BGJb medium (Life Technologies) containing antibiotic–antimycotic (× 1, Life Technologies) was carried out for 3 days at 37 °C in 95% air and 5% CO2 atmosphere. On the 4th day, the medium was replaced with fresh BGJb medium containing hPTH(1–34) (1 nmol l^−1 to 1 μmol l^−1) or PCO371 (0.1 nmol l^−1 to 3 μmol l^−1) or vehicle (0.1% DMSO and 0.1 mmol l^−1 acetic acid at final concentration) and cultured for a further 4 days at 37 °C. Bone samples were then treated with 10% TCA (500 μl/bone) overnight at 37 °C. Radioactivity of the bone and the medium samples was measured. Four to five long bones were used for each individual dose. ^45Ca release (%) was calculated by the following formula (equation (4)): […]

[1] = i.v. 3 mg kg-1 once daily 12 weeks
[2] = i.v. 10 mg kg-1 once daily 12 weeks
[3] = p.o. 30 mg kg-1 once daily 12 weeks

Cc1cc(N2C(=O)NC(=O)C2(C)C)cc(C)c1CCS(=O)(=O)N1CCC2(CC1)N=C(c1ccc(OC(F)(F)F)cc1)NC2=O [PCO371, 1-{3,5-dimethyl-4-[2-({4-oxo-2-[4-(trifluoromethoxy)phenyl]-1,3,8-triazaspiro[4.5]dec-1-en-8-yl}sulfonyl)ethyl]phenyl}-5,5-dimethylimidazolidine-2,4-dione]
EC50 (hPTHR1-delNT): 2500 nM | BFR/BS (Bone formation rate/Bone surface) (OVX rats; [1]): 0.144 ± 0.013 mm3 per mm2 per year | BRs.R (OVX rats; [1]): 0.039 ± 0.005 mm2 per mm2 per year | BV/TV (Bone volume/Tissue volume) (OVX rats; [1]): 23.2 ± 1.9% | ES/BS (Eroded surface/Bone surface) (OVX rats; [1]): 27.6 ± 2.5% | MAR (Mineral apposition rate) (OVX rats; [1]): 1.84 ± 0.07 µm per day | N.Ob/BS (Number of osteoblasts/Bone surface) (OVX rats; [1]): 11.36 ± 0.71 N per mm | N.Oc/BS (Number of osteoclasts/Bone surface) (OVX rats; [1]): 2.55 ± 0.22 N per mm | OV/TV (Osteoid volume/Tissue volume) (OVX rats; [1]): 0.465 ± 0.040% | ObS/BS (Osteoblast surface/Bone surface) (OVX rats; [1]): 14.98 ± 1.07% | OcS/BS (Osteoclast surface/Bone surface) (OVX rats; [1]): 8.49 ± 0.79% | Tb. N (Trabecular number) (OVX rats; [1]): 3.07 ± 0.18 N per mm | Tb. Sp (Trabecular separation) (OVX rats; [1]): 264 ± 24 µm | Tb. Th (Trabecular thickness) (OVX rats; [1]): 75.1 ± 4.1 µm | BFR/BS (Bone formation rate/Bone surface) (OVX rats; [2]): 0.275 ± 0.022 mm3 per mm2 per year | BRs.R (OVX rats; [2]): 0.071 ± 0.008 mm2 per mm2 per year | BV/TV (Bone volume/Tissue volume) (OVX rats; [2]): 20.1 ± 1.1% | ES/BS (Eroded surface/Bone surface) (OVX rats; [2]): 33.0 ± 1.6% | MAR (Mineral apposition rate) (OVX rats; [2]): 2.22 ± 0.06 µm per day | N.Ob/BS (Number of osteoblasts/Bone surface) (OVX rats; [2]): 16.09 ± 1.72 N per mm | N.Oc/BS (Number of osteoclasts/Bone surface) (OVX rats; [2]): 3.60 ± 0.20 N per mm | OV/TV (Osteoid volume/Tissue volume) (OVX rats; [2]): 0.690 ± 0.076% | ObS/BS (Osteoblast surface/Bone surface) (OVX rats; [2]): 24.64 ± 2.70% | OcS/BS (Osteoclast surface/Bone surface) (OVX rats; [2]): 11.69 ± 0.70% | Tb. N (Trabecular number) (OVX rats; [2]): 2.54 ± 0.11 N per mm | Tb. Sp (Trabecular separation) (OVX rats; [2]): 322 ± 18 µm | Tb. Th (Trabecular thickness) (OVX rats; [2]): 79.2 ± 2.7 µm | BFR/BS (Bone formation rate/Bone surface) (OVX rats; [3]): 0.285 ± 0.023 mm3 per mm2 per year | BRs.R (OVX rats; [3]): 0.057 ± 0.006 mm2 per mm2 per year | BV/TV (Bone volume/Tissue volume) (OVX rats; [3]): 20.1 ± 1.4% | ES/BS (Eroded surface/Bone surface) (OVX rats; [3]): 39.7 ± 1.6% | MAR (Mineral apposition rate) (OVX rats; [3]): 2.28 ± 0.08 µm per day | N.Ob/BS (Number of osteoblasts/Bone surface) (OVX rats; [3]): 17.55 ± 1.43 N per mm | N.Oc/BS (Number of osteoclasts/Bone surface) (OVX rats; [3]): 4.30 ± 0.27 N per mm | OV/TV (Osteoid volume/Tissue volume) (OVX rats; [3]): 0.794 ± 0.085% | ObS/BS (Osteoblast surface/Bone surface) (OVX rats; [3]): 25.14 ± 2.09% | OcS/BS (Osteoclast surface/Bone surface) (OVX rats; [3]): 13.60 ± 0.69% | Tb. N (Trabecular number) (OVX rats; [3]): 2.64 ± 0.14 N per mm | Tb. Sp (Trabecular separation) (OVX rats; [3]): 315 ± 24 µm | Tb. Th (Trabecular thickness) (OVX rats; [3]): 76.0 ± 3.1 µm | concentration able to stimulate 45Ca release from prelabeled bones (fetal rat long bones): ≥ 1 µmol/L
